assay: Repolarization time for compound was measured by pattern firing by APN and KVN blockade; type: functional; parameters: unit not given here

SMILES | Repolarization time
N[C@H](Cn1oc(=O)[nH]c1=O)C(=O)O | 7.8
N[C@@]1(C(=O)O)CC[C@H](C(=O)O)C1 (stereo in doubt; trans) | 17
CN[C@H](CC(=O)O)C(=O)O | 8
N[C@]1(C(=O)O)CC[C@@H](C(=O)O)C1 | 10.5
N[C@@]1(C(=O)O)CC[C@H](C(=O)O)C1 (stereo in doubt; cis) | 15
C=C(C)[C@H]1CN[C@H](C(=O)O)[C@H]1CC(=O)O | 19.9
N[C@]1(C(=O)O)CC[C@H](C(=O)O)C1 | 12.7

Reference: ChEMBL document CHEMBL1124091, “Synthesis, resolution, and absolute configuration of the isomers of the neuronal excitant 1-amino-1,3-cyclopentanedicarboxylic acid” (J Med Chem, 1988)
